Test results taken from PMC7311426, “An amphipathic peptide with antibiotic activity against multidrug-resistant Gram-negative bacteria” (Nature Communications, 2020).
≈ marks a conversion by molar mass, not a printed value. Residues, ends and D or L forms follow the SMILES beside them.

What was measured:
P. aeruginosa = experiment: microbe, parasite or virus in culture
Method: (§1) Antimicrobial activity of arenicin-3 and its analogs was tested against a panel of bacterial and yeast strains by in vitro broth microdilution (BMD) assay with minimum inhibitory concentration (MIC) determination. Strains were purchased from American Type Culture Collection (ATCC) or obtained from clinical collaborators (full strain profiles provided in Supplementary Data 3). All peptides were prepared in Ringer’s acetate solution, and subsequently diluted fresh in water for each independent assay.
(§2) Assays were performed in Mueller Hinton broth (MHB; BD, Cat. No. 211443) for bacteria, and yeast extract-peptone dextrose (YPD; Sigma-Aldrich, Y1500) for yeast. The concentrations of the peptides and comparator antibiotics/antifungals in the assay wells ranged from either 128 or 64 μg mL^−1, to 0.06 or 0.03 μg mL^−1 as a 12-point dose response plated as a 2-fold dilution series across the wells of the plate in duplicate for each independent biological replicate, using a final cell density of 5 × 10^5 CFU mL^−1 and 2.5 × 10^3 CFU mL^−1 for bacteria and yeast respectively. Final assay volumes were 100 μL per well with MICs determined visually following 18-20 h incubation at 37 °C for bacteria, 24 h incubation at 35 °C for Candida albicans, and 24 h incubation at 35 °C with resazurin addition (0.006%; Sigma-Aldrich, Cat # R7017) for a further 3 h for Cryptococcus neoformans, without shaking. Additional bacterial and yeast susceptibility assays were performed in Cation-Adjusted Mueller Hinton Broth (CAMHB; BD, Cat No. 212322) and Roswell Park Memorial Institute (RPMI) 1640 culture medium (Life Technologies Australia, Cat No. 21870092), respectively, as recommended by CLSI guidelines (M07 11th ed[36] and M27 4th ed[37]). […] Agarose MICs were determined in MHB with 1% agarose (Bioline molecular grade; Cat no: BIO-41025; high purity, high gel strength). All experiments were performed a minimum of six replicates (n ≥ 6).

K. pneumoniae = experiment: microbe, parasite or virus in culture
Method: as §1, §2

A. baumannii = experiment: microbe, parasite or virus in culture
Method: as §1, §2

C. albicans = experiment: microbe, parasite or virus in culture; settings: 24 h
Method: as §1, §2

E. coli = experiment: microbe, parasite or virus in culture
Method: as §1, §2

S. aureus = experiment: microbe, parasite or virus in culture
Method: as §1, §2

[1] = test system: human erythrocytes (HRBC); format: cell-based
in vitro = settings: human
Method: (§3) HEK-293 human embryonic kidney cells (ATCC CRL-1573), HepG2 liver hepatocellular carcinoma cells (ATCC HB-8065), and HK-2 human kidney proximal tubule cells (ATCC CRL-2190) cell lines were purchased from ATCC. Cytotoxicity of arenicin-3 variants was determined using the Alamar Blue (resazurin; Sigma-Aldrich, Cat # R7017), with 1% FBS for HK-2 and 10% FBS for HEK-293, and HepG2[40]. Cells were seeded as 2000 cells per well in black wall clear bottom 384-well plates (Corning®, Costar®, Cat # 3712). The cells were incubated for 24 h at 37 °C, 5% CO2. Then peptides were added into each cell containing well. After 24 h incubation, 5 μM resazurin were added per well and incubated at 37 °C for 2 h. Then the fluorescence intensity (FI) was read using a Polarstar® Omega plate reader with excitation/emission 560/590 and CC50 values were determined using Prism 8 following curve fitting and applying the following equation: Percentageviability = (FITEST-FINegative/FIUNTREATED-FINegative)×100.
(§4) Hemolytic activity was measured against isolated human erythrocytes from anonymously donated fresh human blood. Isolated erythrocytes were adjusted to 1 × 10^9 blood cells mL^−1 in phosphate-buffered saline (PBS, pH 7.4), added to the wells of NUNC polypropylene round-bottom 96-well plates (Sigma-Aldrich, Cat # P6866) then up to 300 μg mL^−1 of compound was added per well and incubated for 3 h at 37 °C. Following incubation, samples were centrifuged at 3000 rpm for 20 min, and the supernatants, 100 μL, were carefully collected for measurement. The degree of hemolysis in the samples was determined by measurement of the absorption of the supernatants at 540 nm using the Polarstar-Omega plate reader. 1% Triton-X100 was used as positive control for inducing 100% hemolysis. HC10 and HC50 values were determined using Prism 8 following curve fitting. The use of human blood (sourced from the Australian Red Cross Blood Service) for hemolysis assays was approved by the University of Queensland Institutional Human Research Ethics Committee, Approval Number 2014000031. All in vitro toxicity assays were performed for two independent biological replicates as an 8-point dose response of 3-fold dilution series in triplicate with the highest test concentration of 300 μg mL^−1.

[2] = test system: HEK-293 human embryonic kidney cells; experiment: in vitro
Method: as §3, §4

[3] = test system: HK-2 human kidney proximal tubule cells; experiment: in vitro
Method: as §3, §4

[4] = test system: HepG2 liver hepatocellular carcinoma cells; experiment: in vitro
Method: as §3, §4

E. coli ATCC 25922 = experiment: microbe, parasite or virus in culture; format: cell-based, Escherichia coli; settings: ATCC 25922
Method: Assays were performed in Mueller Hinton broth (MHB; BD, Cat. No. 211443) for bacteria, and yeast extract-peptone dextrose (YPD; Sigma-Aldrich, Y1500) for yeast. The concentrations of the peptides and comparator antibiotics/antifungals in the assay wells ranged from either 128 or 64 μg mL^−1, to 0.06 or 0.03 μg mL^−1 as a 12-point dose response plated as a 2-fold dilution series across the wells of the plate in duplicate for each independent biological replicate, using a final cell density of 5 × 10^5 CFU mL^−1 and 2.5 × 10^3 CFU mL^−1 for bacteria and yeast respectively. Final assay volumes were 100 μL per well with MICs determined visually following 18-20 h incubation at 37 °C for bacteria, 24 h incubation at 35 °C for Candida albicans, and 24 h incubation at 35 °C with resazurin addition (0.006%; Sigma-Aldrich, Cat # R7017) for a further 3 h for Cryptococcus neoformans, without shaking. Additional bacterial and yeast susceptibility assays were performed in Cation-Adjusted Mueller Hinton Broth (CAMHB; BD, Cat No. 212322) and Roswell Park Memorial Institute (RPMI) 1640 culture medium (Life Technologies Australia, Cat No. 21870092), respectively, as recommended by CLSI guidelines (M07 11th ed[36] and M27 4th ed[37]). […] However, for yeast it was determined that the YPD media was more reliable and robust between repeats and therefore MICs in this media are reported. […] Agarose MICs were determined in MHB with 1% agarose (Bioline molecular grade; Cat no: BIO-41025; high purity, high gel strength). All experiments were performed a minimum of six replicates (n ≥ 6).

Compound	BMD MIC (P. aeruginosa)	BMD MIC (K. pneumoniae)	BMD MIC (A. baumannii)	BMD MIC (C. albicans)	BMD MIC (E. coli)	BMD MIC (S. aureus)	Heamolysis HC10, Mean [1]	CC50 at 24 h (in vitro; HEK-293 cells)	CC50 at 24 h (in vitro; HK-2 cells)	CC50 at 24 h (in vitro; HepG2 cells)	CC50 HEK293, Mean [2]	CC50 HK2, Mean [3]	CC50 HepG2, Mean [4]	MIC, MHB (E. coli ATCC 25922)	CC50 HEK293 [2]	CC50 HK2 [3]	CC50 HepG2 [4]
CC(C)C[C@@H]1NC(=O)CNC(=O)[C@H](CC(N)=O)NC(=O)[C@H](CCCNC(=N)N)NC(=O)[C@H](CO)NC(=O)[C@H](C)NC(=O)[C@@H]2CSSC[C@H](NC(=O)[C@H](C(C)C)NC(=O)[C@H](CCCNC(=N)N)NC1=O)C(=O)N[C@@H](Cc1ccc(O)cc1)C(=O)N[C@@H](CCCNC(=N)N)C(=O)N[C@@H](CCCNC(=N)N)C(=O)N[C@H](C(=O)N[C@@H](CC(N)=O)C(=O)O)CSSC[C@H](NC(=O)[C@H](Cc1ccccc1)NC(=O)CN)C(=O)N[C@@H](Cc1c[nH]c3ccccc13)C(=O)N[C@@H](CCCNC(=N)N)C(=O)N[C@@H](C(C)C)C(=O)N2 [NZ17125] (HELM PEPTIDE1{G.F.C.W.R.V.C.A.S.R.N.G.L.R.V.C.Y.R.R.C.N}$PEPTIDE1,PEPTIDE1,3:R3-20:R3|PEPTIDE1,PEPTIDE1,7:R3-16:R3$$$V2.0)	0.25 µg/mL	0.25 µg/mL	1 µg/mL	64 µg/mL	0.125 µg/mL	64 µg/mL	181 µg/mL	250 µg/mL (≈ 99.4 µM)	110 µg/mL (≈ 43.7 µM)	299 µg/mL (≈ 119 µM)	250 µg/mL (≈ 99.4 µM)	110 µg/mL (≈ 43.7 µM)	299 µg/mL (≈ 119 µM)	0.125 µg/mL (≈ 0.0497 µM)			
CC(C)C[C@@H]1NC(=O)CNC(=O)[C@H](CC(N)=O)NC(=O)[C@H](CCCNC(=N)N)NC(=O)[C@H](CCCCN)NC(=O)[C@H](C)NC(=O)[C@@H]2CSSC[C@H](NC(=O)[C@H](C(C)C)NC(=O)[C@H](CCCNC(=N)N)NC1=O)C(=O)N[C@@H](Cc1ccc(O)cc1)C(=O)N[C@@H](CCCNC(=N)N)C(=O)N[C@@H](CCCNC(=N)N)C(=O)N[C@H](C(=O)N[C@@H](CC(N)=O)C(=O)O)CSSC[C@H](NC(=O)[C@H](Cc1ccccc1)NC(=O)CN)C(=O)N[C@@H](Cc1c[nH]c3ccccc13)C(=O)N[C@@H](Cc1ccc(O)cc1)C(=O)N[C@@H](C)C(=O)N2 [NZ17126] (HELM PEPTIDE1{G.F.C.W.Y.A.C.A.K.R.N.G.L.R.V.C.Y.R.R.C.N}$PEPTIDE1,PEPTIDE1,3:R3-20:R3|PEPTIDE1,PEPTIDE1,7:R3-16:R3$$$V2.0)	0.25 µg/mL	0.25 µg/mL	1 µg/mL	>64 µg/mL	0.125 µg/mL	32 µg/mL	232 µg/mL	> 300 µg/mL	> 250 µg/mL	> 300 µg/mL	>300 µg/mL	>250 µg/mL	>300 µg/mL		>300 µg/mL	>254 µg/mL	>300 µg/mL
